Test results published in US5912266A, “Beta2 integrin cell adhesion molecule inhibitors” (American Home Products Corporation, priority 1997, dated 1999).
“And” between values parts separate entries of the source, which are not always exact repeats. Equal entries are not always repeated. Where two headings read alike, the source gives them in different places.

Key:
Type in all cases: cell-based, human
[1] = MTT cytotoxicity assay, U937 cells; conditions: human, u937 cells, U937, 30 min., read-out: % Inhibition MTT Reduction
Source text: (§1) This experiment describes the affect of asperlin on cellular respiration (mitochondrial activity) by measuring the reduction of the tetrazolium salt MTT to formazan crystals (Moseman, et al). This assay served as a control to ensure that the decrease in the fluorescence observed in Example I, Table I, was not the result of the fluorescent dye leaking from the cells due to disruption of the cell membrane. To address this issue, the mitochondrial activity of β2 and β1 integrin expressing cells in the presence of asperlin was quantitated using a commercially available MTT cytotoxicity kit (Promega No. G4100).
(§2) HL60 and U937 cells were purchased from the American Type Culture Collection (ATCC) and maintained in RPMI 1640 culture media containing 10% heat inactivated fetal bovine serum (refer to Example I, materials). HL60 cells were used between passages 20 and 30. HL60 cells were stimulated by a four day exposure to DMSO, as described in Example I, materials. Falcon round bottom tissue culture plates (No. 3077) were used for the experiment. All remaining reagents were supplied in Promega's MTT cytotoxicity kit (Catalog No. G4100).
(§3) The assay procedure described in the Promega MTT kit was used with the following changes.
(§4) Asperlin was solubilized in 100% DMSO at a concentration of 50 mg/ml. The 50 mg/ml asperlin stock was diluted to 400 μg/ml with culture media containing 5% fetal bovine serum (FBS). This solution was further diluted to 80 and 20 μg/ml with culture media supplemented with 5% FBS plus 2% DMSO. 50 μl of the 20 and 80 μg/ml asperlin solutions were added to wells of a sterile, round bottom 96 well assay plate. Control wells received 50 μl of culture media containing 5% FBS plus 2% DMSO. Duplicate assay wells were prepared such that U937 and HL60 cells could be evaluated on the same plate. The cell density of β1 integrin expressing U937, and β2 integrin expressing HL60 cell cultures were determined using a hemacytometer.
(§5) Cells were harvested by centrifuging for 5 minutes at 1000 rpm, room temperature, in a Sorvall RT600 bench-top centrifuge. The HL60 cell pellet was resuspended in fresh culture media at a concentration of 5×10^6 cells/ml. The U937 cell pellet was resuspended in fresh culture media at a concentration of 2.5×10^6 cells/ml. 2.5×10^5 β2 integrin expressing HL60 cells, contained in 50 μl, were added to wells of the assay plate using a multichannel pipettor. In duplicate assay wells, 1.25×10^5 β1 integrin expressing U937 cells, contained in 50 μl, were added to wells of the assay plate using a multichannel pipettor. Assay plates were incubated for either 30 minutes, 60 minutes, or 4 hours in a 37° C. 5% CO2, humidified incubator.
(§6) At the appropriate time point, 15 μl of MTT reagent, supplied in the Promega assay kit, was added to each well using a multichannel pipettor. Assay plates were incubated in the 37° C. incubator, as just described, for two hours. The MTT reduction reaction was quenched, and the visible formazan crystals were solubilized by adding exactly 100 μl of Promega's solubilization buffer to each well. Assay plates were incubated for at least 18 hours in the same 37° C. incubator just described to solubilize the formazan reagent. Assay plates were removed from the incubator and allowed to cool to room temperature. The optical density (OD) of each well of the assay plate was determined using a microtiter plate reader (Flow Labs) set at a wavelength of 580 nm with a correction wavelength of 630 nm.
(§7) Replicate sample ODs were average. The percentage of inhibition of cellular respiration (mitochondrial activity) by asperlin was quantitated by the following equation:
(§8) % Inhibition=(1-(Sample OD.div.Average Control OD))×100

U937 cells = test: MTT cytotoxicity assay, U937 cells; conditions: for Average Optical Density / Optical Density: U937, 30 min.; for Optical Density: single well, 580 nm
Source text: as §1, §2, §3, §4, §5, §6, §7, §8

LFA-1 = test: β2 integrin/ICAM-1 homotypic (cell:cell) binding of 8866 cells
Source text: The following experiment describes the inhibition of homotypic (cell:cell) binding of β2 and ICAM-1 expressing cells by asperlin. 8866 cells, a human B-cell line, were supplied by Athena Neurosciences (San Francisco, Calif.). These cells constitutively express both the β2 integrin referred to as LFA-1, and ICAM-1 on the cell surface. In culture, 8866 cells spontaneously bind, or clump together, as a result of β2 integrin binding to ICAM-1.
8866 cells were maintained in RPMI 1640 culture media (refer to Example I) supplemented with […] HEPES buffer (Gibco No. 15630-080). Cells were subcultured when the cell density was approximately 1×10^6 cells/ml. […]
8866 cells were harvested by centrifuging 5 minutes, at 1000 rpm, room temperature, in a Sorvall RT6000 centrifuge. The cell pellet was resuspended in culture media and cells were counted using a hemacytometer. […]
Asperlin was solubilized in 100% DMSO at a concentration of 20 mg/ml, 10 mg/ml, 5 mg/ml, and 2.5 mg/ml. […] The progression of homotypic binding was monitored by microscopic observations after 1 and 2 hours of incubation.
Inhibition β2 integrin dependent homotypic binding to ICAM-1 by asperlin was photographically recorded using a Nikon 35 mm camera attached to a Nikon Diaphot 300 inverted microscope (filter setting NCBII, objective 10×, and light setting of photo).

With `CC(=O)OC1C=CC(=O)OC1C1OC1C` [Asperlin, 6,7-Anhydro-2,3,8-trideoxy-D-galacto-oct-2-enoic acidδ-lactone 4-acetate] the cytotoxicity at 0.5 h ([1]; Asperlin 10 μg/mL) was 0%, the cytotoxicity at 0.5 h ([1]; Asperlin 40 μg/mL) was 11% and the “Average Optical Density” value (U937 cells; Asperlin 10 μg/mL) was 1.532. For the same compound, the “Optical Density” value (U937 cells; Asperlin 10 μg/mL) was 1.410 and 1.601 and 1.584, the “Average Optical Density” value (U937 cells; Asperlin 40 μg/mL) was 1.386 and the “Optical Density” value (U937 cells; Asperlin 40 μg/mL) was 1.362 and 1.352 and 1.391. The “Cytotoxicity (in words)” value (U937 cells; β1 integrin expressing U937 cells) was “not cytotoxic”, the “Inhibition of 8866 cell homotypic binding, visual inspection (in words)” value (LFA-1; after 1 hour of incubation) was “inhibit cell--cell binding in a dose dependent manner” and the “Inhibition of 8866 cell homotypic binding, visual inspection (in words)” value (LFA-1; after 2 hours of incubation) was “inhibited 8866, β2 integrin mediated homotypic binding to ICAM-1 in a dose dependent manner”.
